{"source": "patent US10073097B2", "about": "“Diagnostic assays and methods of treating pneumonia, sepsis and systemic inflammatory response syndrome” (priority 2012, dated 2018)", "key": {"[1]": {"test_system": "peritoneal cells", "test": "NDMP generation by peritoneal cells collected 24 H after TGA treatment, cultured with agonists or inhibitors", "assay_type": "cell-based, mice", "settings": "peritoneal cells 24 H after 3% TGA; for NDMP numbers compared to cells cultured without agent: 8-Br-cAMP 100 μM, H89 20 μM, 6-Bnz-cAMP 100 μM, 8-CPT-2Me-cAMP 100 μM, Y27632 30 μM, PGE2 1 μM, 24 H; for decrease in NDMP generation when compared to cells cultured without inhibitor: ML7 250 μM, Z-VAD-FMK 200 μM, Z-IETD-FMK 30 μM, flow cytometry", "procedure": "Experimental Protocol. A biochemical pathway for NDMP formation was investigated. Specifically, proteins associated with F-actin were investigated, as F-actin rearrangement is a terminal step in apoptosis. The role of myosin light chain kinase (hereinafter “MLC K”) in NDMP generation was initially investigated. Peritoneal cells were isolated from peritoneal lavage 24 H after 1 mL 3% TGA injection. Peritoneal cells were cultured with one of the following agonists or inhibitors overnight in a CO2 incubator: 250 μM ML7, a MLCK inhibitor, (Tocris, Bristol, UK), 200 μM Z-VAD-FMK, a caspase 3 inhibitor, (Tocris), 30 μM Z-IETD-FMK, a caspase 8 inhibitor, (Tocris), or 30 μM Z-LEHD-FMK, or a caspase 9 inhibitor, (Tocris). Cells and MPs were collected 24 H following incubation and analyzed using flow cytometry as previously described.\nStatistical comparisons were performed using Student t Test (two groups), or one-way ANOVA with Holm-Sidak post-hoc test (more than two groups) using StatView 3.5 (SAS Institute, Cary, N.C.). The mean and standard error of the mean were calculated in experiments containing multiple data points. A value of p≤0.05 was considered statistically significant.\nExperimental Protocol. Elucidation of potential signaling pathways involved in NDMP formation was studied. Peritoneal cells were isolated from peritoneal lavage 24 H after 1 mL 3% TGA injection. […] Cells and MPs were collected 24 H following incubation and analyzed using flow cytometry as previously described."}, "[2]": {"test_system": "Mouse neutrophils", "test": "NDMP generation by mouse bone marrow neutrophils treated with TNF-α with or without inhibitors", "assay_type": "cell-based", "settings": "for NDMPs after TNF-α plus caspase 8 inhibitor vs TNF-α alone: WT neutrophils, 25 ng/mL rhTNF-α (TNFr1) or rmTNF-α (TNFr1 and TNFr2)", "description": "Materials and Methods. Male C57BL/6 and TNFr1 KO (stock number: 003242) mice between 6 and 8 weeks of age were obtained from Jackson Labs (Bar Harbor, Me.). Mouse and human TNF-α Recombinant Protein (rmTNF-α and rhTNF-α, respectively) were purchased from Preprotech (Rocky Hill, N.J.). NF-κB inhibitor (BAY 11-7085) and Caspase 8 inhibitor (Z-IETD-FMK) were purchased from R&D systems (Minneapolis, Minn.). The pharmacological agents were solubilized in DMSO (American Bioanalytical, Natick, Mass.). The amount of DMSO was consistent in all samples groups. Neutrophil isolation. Mouse neutrophils from bone marrow were isolated from C57B1/6 mice as previously described. The femurs and tibias were flushed with Hanks' Balanced Salt Solution without calcium & Magnesium (HBSS) (Mediatech, Inc. Manassas, Va., USA). Bone marrow particulate was disaggregated and filtered in a 70 micron filter, then centrifuged at 400×g for 10 min at 23° C. The cells in the pellet were resuspended in HBSS, placed on a 55% Percoll gradient, and centrigued at 100×g for 30 min at 23° C. The pellet was washed once more. The final neutrophil preparation was re-suspended in HBSS. The purity and viability of the neutrophils (90% purity >99% viability, respectively) was determined by flow cytometry. Neutrophil purity was assessed by flow cytometry after cell staining with fluorescently conjugated antibodies to Ly-6G, CD19, CD3 and F4/80 with >99% of the cells negative for F4/80 and CD3. The main cell contaminant in this preparation was due to B cells. Further purification was not conducted by centriguation due to risk of non-specific neutrophil activation or by magnetic beads due to microparticle-sized contaminants introduced by the beads themselves.\nMicroparticle Generation and Analysis. Isolated neutrophils from bone marrow preparation were plated and cultured for the indicated time at 37° C. with stated treatments. The cell/micropartocle mixture was labeled for Ly-6G and Annexin V without manipulation as previously described. […] Neutrophil derived microparticle numbers were assessed using the neutrophil specific marker, Ly-6G (Clone: 1A8, BD Pharmingen, San Diego, Calif., United States); and Annexin V (BD Pharmingen). […]\nStatistical Analysis. […] The mean and standard error of the mean were calculated in experiments containing multiple data points. […]\nUsing flow cytometry, forward- and side-channels were set to analyze particles using 0.5-, 0.9-, and 3.0-μm latex beads for calibration as previously described (FIG. 22A). […] To enumerate NDMPs, neutrophil and NDMP mixture were analyzed with the neutrophil-specific marker, Ly6G, and the apoptosis marker, annexin V. Vesicles within the 0.3-1.0 μm range that expressed both Ly6G and phosphatidylserine were identified as NDMPs. […]"}, "[3]": {"test_system": "C57BL/6 mice", "test": "Intraperitoneal treatment of mice with TGA, LPS or PepG: peritoneal neutrophil recruitment and NDMP generation", "assay_type": "in vivo", "settings": "for neutrophil recruitment and NDMP generation/accumulation in the peritoneum: i.p. injection, peritoneal lavage 24 H after 3% TGA; for # NDMPs: peritoneal NDMPs after treatment; for # NDMPs / # Neuts: 3% TGA 1 mL i.p., PepG 1 mg i.p., LPS 100 μg i.p., CLP 75% ligation/23 gauge puncture; for # Neuts: peritoneal neutrophils after treatment", "procedure": "Low-endotoxin NDMPs were generated and used to assess host response during sepsis. More specifically, mice were treated with intraperitoneal injections of 3% thioglycolate (hereinafter, “TGA”), LPS, or petidylglycan (hereinafter “PepG”). Peritoneal neutrophil recruitment, NDMPs, and endotoxin associated with NDMPs were quantified.\nExperimental Protocol. The ability of TGA to generate microparticles in vivo was investigated. Male C57BL/6 mice between 6 and 8 weeks of age (about 20 to 28 g) were injected in the peritoneum with 1 mL 3% thioglycolate (Sigma, St. Louis, Mo.) or with vehicle. Peritoneal lavage was performed 24 H after injection. Peritoneal cells were pelleted after a 10-minute 450×g centrifugation. The supernatant was then centrifuged for 10 minutes at 9,900×g to remove platelets. The platelet-free supernatant was centrifuged for 20 minutes at 16,000×g in order to pellet MPs. The MP pellet was resuspended in 500 μL sterile PBS and centrifuged for 20 minutes at 16,000×g. The MP pellet was then resuspended in 100 μL sterile PBS for analysis.\nAnalysis of cell surface antigen expression was performed on peritoneal lavage fluid. Flow cytometry data acquisition and analysis were performed on an LSR II using FACS Diva software (BD Biosciences). Antibodies used included: Ly-6G (Clone: 1A8, BioLegend), LY-6C (Clone: AL-21, BD Biosciences), CD11b (Clone: M1/70, BioLegend), Ter-119 (Clone: Ter-119, BioLegend), CD41 (Clone: MWReg30, BioLegend), CD105 (Clone: MJ7/18, BioLegend), Annexin V (BioLegend), and counting beads (Invitrogen, Grand Island, N.Y.). As shown in FIG. 19(A), forward and side scatter flow cytometry were initially performed on the lavage to both characterize and enumerate microparticles. A gate was created using 0.3-1.1 μm beads to isolate the MPs in the sample.\nVehicle mice and TGA-treated mice were stained with neutrophil specific Ly6G and annexinV antibodies. Total NDMPs from TGA-treated mice and vehicle mice were then enumerated."}, "[4]": {"test_system": "peritoneal cells isolated from septic mice", "test": "In vitro NDMP generation by peritoneal cells isolated from septic (CLP) mice", "assay_type": "cell-based", "procedure": "Experimental Protocol. Peritoneal lavage cells from mice made septic by cecal ligation and puncture were isolated. The cells were then incubated with or without lipopolysaccharide (hereinafter “LPS”, 100 ng/mL) for […]. MPs from these cultures were then isolated, quantified by bicinchoninic acid assay (hereinafter, “BCA”), and analyzed by fluorescence-activated cell sorting (hereinafter “FACS”).\nExperimental Protocol. Peritoneal cells were isolated from septic mice 24 H after CLP. The isolated peritoneal cells were incubated with PBS or 100 ng/mL LPS for 24 H. Samples were analyzed using LSR II flow cytometer and FACS Diva software (BD Biosciences). As shown in FIG. 17(A), latex beads of a predetermined size were used to set the forward and side scatter voltages to best distinguish particles ranging from […].\nExperimental Protocol. Signaling intermediates required for NDMP formation are largely unexplored. cAMP was targeted as a potential signaling mechanism involved in NDMP formation. Peritoneal cells were isolated 24 H after CLP surgeries. […] After 24 H, NDMPs were enumerated and characterized by flow cytometry."}}, "note": "“Also recorded” adds a separate entry of the source. Residues, ends and D or L forms follow the SMILES beside them. *: point of attachment. Cbz = O=C(OCc1ccccc1)*; CH2F = FC*"}
{"molecule": "O=C(Nc1ncnc2c1ncn2[C@@H]1O[C@@H]2COP(=O)(O)OC2C1O)c1ccccc1", "note": "(stereo in doubt) [6-Bnz-cAMP]", "values": [{"measurement": "NDMP numbers compared to cells cultured without agent", "setting": "[1]", "value": "inhibited NDMP formation"}]}
{"molecule": "CC(C)(C)c1ccc(S(=O)(=O)/C=C/C#N)cc1", "note": "[BAY 11-7085]", "values": [{"measurement": "NDMP generation after activation of TNFr1, TNFr2 or both", "setting": "[2]; WT or TNFr1−/− neutrophils, 25 ng/mL rmTNF-α or rhTNF-α, 20 μM BAY 11-7085, 1 h", "value": "completely abrogates NDMP generation"}]}
{"molecule": "CO[C@@H]1[C@@H]2OP(=O)(O)OC[C@H]2O[C@H]1n1c(Sc2ccc(Cl)cc2)nc2c(N)ncnc21", "note": "[EPAC, 8-CPT-2Me-cAMP]", "values": [{"measurement": "NDMP numbers compared to cells cultured without agent", "setting": "[1]", "value": "did not affect NDMP numbers"}]}
{"molecule": "Cl.Cl.O=S(=O)(NCCNC/C=C/c1ccc(Br)cc1)c1cccc2cnccc12", "note": "[H89]", "values": [{"measurement": "NDMP numbers compared to cells cultured without agent", "setting": "[1]", "value": "did not"}]}
{"molecule": "Cl.O=S(=O)(c1cccc2c(I)cccc12)N1CCCNCC1", "note": "[ML7]", "values": [{"measurement": "decrease in NDMP generation when compared to cells cultured without inhibitor", "setting": "[1]; 24 H culture", "value": 75, "unit": "%"}]}
{"molecule": "CCCCC[C@H](O)/C=C/[C@H]1[C@H](O)CC(=O)[C@@H]1C/C=C\\CCCC(=O)O", "note": "[PGE2, Prostaglandin E2]", "values": [{"measurement": "NDMP numbers compared to cells cultured without agent", "setting": "[1]", "value": "decrease in the total number of NDMPs"}]}
{"molecule": "C[C@@H](N)[C@H]1CC[C@H](C(=O)Nc2ccncc2)CC1", "note": "[Y27632]", "values": [{"measurement": "NDMP numbers compared to cells cultured without agent", "setting": "[1]", "value": "decrease in the total number of NDMPs"}]}
{"molecule": "CC[C@H](C)[C@H](NC(=O)OCc1ccccc1)C(=O)N[C@@H](CCC(=O)OC)C(=O)N[C@H](C(=O)N[C@@H](CC(=O)OC)C(=O)CF)[C@@H](C)O", "note": "[Z-IETD-FMK] (Cbz-IE(OMe)TD(OMe)-CH2F)", "values": [{"measurement": "decrease in NDMP generation when compared to cells cultured without inhibitor", "setting": "[1]; 24 H culture", "value": 37, "unit": "%"}, {"measurement": "NDMPs after TNF-α plus caspase 8 inhibitor vs TNF-α alone", "setting": "[2]; 30 μM Z-IETD-FMK, 1 h, listed as Caspase 8 inhibitor", "value": "sharply decreased but not entirely eliminated"}, {"measurement": "NDMPs after TNF-α plus caspase 8 inhibitor vs TNF-α alone", "setting": "[2]; 30 μM Z-IETD-FMK, 1 h, listed as caspase 8 inhibitor", "value": "significant decrease in NDMPs"}, {"measurement": "microparticle generation after TNF-α plus caspase 8 inhibitor, only TNFr2 activated", "setting": "[2]; neutrophils from TNFr1−/− mice, 25 ng/mL rmTNF-α, 30 μM Z-IETD-FMK, 1 h, listed as Caspase 8 inhibitor", "value": "did not alter NDMP numbers; also recorded: no decrease in microparticle generation"}]}
{"molecule": "COC(=O)CC[C@H](NC(=O)[C@H](CC(C)C)NC(=O)OCc1ccccc1)C(=O)N[C@@H](Cc1cnc[nH]1)C(=O)N[C@@H](CC(=O)OC)C(=O)CF", "note": "[Z-LEHD-FMK] (Cbz-LE(OMe)HD(OMe)-CH2F)", "values": [{"measurement": "NDMP generation compared to cells cultured without inhibitor", "setting": "[1]; Z-LEHD-FMK 30 μM, 24 H culture", "value": "no significant difference"}]}
{"molecule": "COC(=O)C[C@H](NC(=O)[C@H](C)NC(=O)[C@@H](NC(=O)OCc1ccccc1)C(C)C)C(=O)CF", "note": "[Z-VAD-FMK] (Cbz-Val-Ala-Asp(OMe)-CH2F)", "values": [{"measurement": "decrease in NDMP generation when compared to cells cultured without inhibitor", "setting": "[1]; 24 H culture", "value": 37, "unit": "%"}]}
{"molecule": "lipopolysaccharide [LPS]", "values": [{"measurement": "neutrophil recruitment and NDMP generation/accumulation in the peritoneum", "setting": "[3]", "value": "resulted in neutrophil recruitment and NDMP generation"}, {"measurement": "# NDMPs", "setting": "[3]", "value": "2.4 ×10^3"}, {"measurement": "# Neuts", "setting": "[3]", "value": "0.16 ×10^6"}, {"measurement": "NDMP formation from peritoneal cells", "setting": "[4]; LPS 100 ng/mL vs PBS, 24 H, cells isolated 24 H after CLP", "value": "enhance NDMP formation"}, {"measurement": "increase in NDMPs from LPS-treated cells compared to spontaneous NDMP generation", "setting": "[4]; LPS 100 ng/mL, 18 H, peritoneal lavage cells of CLP mice", "value": "~60", "unit": "%"}]}
{"molecule": "peptidoglycan [PepG]", "values": [{"measurement": "neutrophil recruitment and NDMP generation/accumulation in the peritoneum", "setting": "[3]", "value": "resulted in neutrophil recruitment and NDMP generation"}, {"measurement": "# NDMPs", "setting": "[3]", "value": "3.0 ×10^3"}, {"measurement": "# Neuts", "setting": "[3]", "value": "2.0 ×10^6"}]}
{"molecule": "thioglycolate [3% TGA]", "values": [{"measurement": "neutrophil recruitment and NDMP generation/accumulation in the peritoneum", "setting": "[3]", "value": "greatest number of low endotoxin NDMPs"}, {"measurement": "neutrophil recruitment and NDMP generation/accumulation in the peritoneum", "setting": "[3]; listed as TGA", "value": "resulted in neutrophil recruitment and NDMP generation; also recorded: robust accumulation of NDMPs"}, {"measurement": "# NDMPs", "setting": "[3]", "value": "35.1 ×10^3"}, {"measurement": "# Neuts", "setting": "[3]", "value": "6.9 ×10^6"}]}
